Measured values published in US7732452B2, “Thiophene derivatives which are HM74A agonists” (Hoffmann-La Roche Inc., priority 2005, dated 2010).

Target: T1, HM74A (Homo sapiens, UniProt Q8TDS4)
T1 construct: expressed in transfected cells; pcDNA3.1 vectors; co-expressing chimeric G protein Gqi9
Assay: Secondary fluorescent calcium indicator assay (FLIPR)
Type: cell-based
Details: HEK-293 cells stably expressing HM74A and chimeric G protein Gqi9; % stimulation of maximal nicotinic acid response (100 μM)
Experimental: Secondary Fluorescent Calcium Indicator Assay (FLIPR)
HEK-293 cells were grown in tissue culture medium (DMEM/Nut mix F12 Medium with Glutamax I (Invitrogen), containing 10% FBS) at 37° C. in a 5% CO2 atmosphere. These cells were cultured in 6-well dishes at 3×10^5 cells/well and double transfected with DNA vectors (pcDNA3.1, Invitrogen) expressing either HM74A or HM74 and the chimeric G protein Gqi9. Two days after transfection the wells were combined and plated in 150 cm^2 flasks, in the presence of 50 μg/ml Hygromycin (Invitrogen) and 500 μg/ml Geneticin (Gibco). Fourteen days after plating, colonies were picked, expanded and analyzed for expression using a functional assay (FLIPR). Stable transfected HEK-293 cells expressing either HM74A or HM74 and the chimeric G protein Gqi9 were plated at 50,000 cells/well in black 96-well plates with clear bottom (Costar) and cultured to confluency overnight in growth media (DMEM/Nut mix F12 Medium with Glutamax I (Invitrogen), containing 10% FBS) at 37° C. in a humidified cell incubator containing 5% CO2. Growth media was aspirated and replaced with 100 μl of 1×FLIPR Calcium Assay Dye (Molecular Devices) in Hank's balanced salt solution (HBSS) containing 10 mM HEPES, and […] probenecid (Sigma), for 1 hour at 37° C. Cell plates were transferred to a FLIPR unit (Molecular Devices), and 50 μl of 3× compound dilution were added. Fluorescence emissions were measured and the effects of compounds were expressed as % stimulation of maximal nicotinic acid response (100 μM). Sigmoidal curves were fitted using the XLfit3 program (ID Business Solutions Ltd. UK) and EC50 values determined.

T1 sequence (Q8TDS4 whole entry): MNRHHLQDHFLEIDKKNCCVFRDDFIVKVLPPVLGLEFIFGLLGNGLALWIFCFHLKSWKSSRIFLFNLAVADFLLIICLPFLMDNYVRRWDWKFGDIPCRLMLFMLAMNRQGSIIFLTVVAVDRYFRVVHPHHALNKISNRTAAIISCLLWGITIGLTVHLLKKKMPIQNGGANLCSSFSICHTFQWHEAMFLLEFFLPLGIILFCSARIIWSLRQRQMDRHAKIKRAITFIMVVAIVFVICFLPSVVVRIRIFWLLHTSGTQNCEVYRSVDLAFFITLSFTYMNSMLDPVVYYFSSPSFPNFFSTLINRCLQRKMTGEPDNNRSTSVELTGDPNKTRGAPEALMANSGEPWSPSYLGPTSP

EC50	SMILES
0.0487 µM	O=C(COc1ccc(-c2ccccc2)cc1)Nc1cscc1C(=O)O [Example 2, 4-[2-(Biphenyl-4-yloxy)-acetylamino]-thiophene-3-carboxylic acid]
0.131 µM	O=C(COc1ccc(-c2ccc(F)cc2)cn1)Nc1cscc1C(=O)O [Example 11, 4-{2-[5-(4-Fluoro-phenyl)-pyridin-2-yloxy]-acetylamino}-thiophene-3-carboxylic acid]
0.225 µM	CC(C)(C)c1ccc(OCC(=O)Nc2cscc2C(=O)O)cc1 [Example 23, 4-[2-(4-tert-Butyl-phenoxy)-acetylamino]-thiophene-3-carboxylic acid]

System: not given
Assay: not given
Details: not given

melting point	SMILES
258 to 264 °C	O=C(COc1ccc(Cl)c(Cl)c1)Nc1cscc1C(=O)O [Example 18, 4-[2-(3,4-Dichloro-phenoxy)-acetylamino]-thiophene-3-carboxylic acid]
218 to 223 °C	O=C(COc1ccc(-c2ccccc2Cl)cn1)Nc1cscc1C(=O)O [Example 19, 4-{2-[5-(2-Chloro-phenyl)-pyridin-2-yloxy]-acetylamino}-thiophene-3-carboxylic acid]

Continued, compound first:

SMILES	melting point
O=C(COc1ccc(-c2ccc(F)cc2)cc1)Nc1cscc1C(=O)O [Example 1, 4-[2-(4′-Fluoro-biphenyl-4-yloxy)-acetylamino]-thiophene-3-carboxylic acid]	244 to 251 °C
O=C(COc1ccc(-c2ccccc2)cc1)Nc1cscc1C(=O)O [Example 2, 4-[2-(Biphenyl-4-yloxy)-acetylamino]-thiophene-3-carboxylic acid]	247 to 251 °C
COc1ccccc1-c1ccc(OCC(=O)Nc2cscc2C(=O)O)cc1 [Example 3, 4-[2-(2′-Methoxy-biphenyl-4-yloxy)-acetylamino]-thiophene-3-carboxylic acid]	196 to 199 °C
O=C(COc1ccc(-c2cccc(Cl)c2)cc1)Nc1cscc1C(=O)O [Example 4, 4-[2-(3′-Chloro-biphenyl-4-yloxy)-acetylamino]-thiophene-3-carboxylic acid]	216 to 218 °C
Cc1ccccc1-c1ccc(OCC(=O)Nc2cscc2C(=O)O)cc1 [Example 5, 4-[2-(2′-Methyl-biphenyl-4-yloxy)-acetylamino]-thiophene-3-carboxylic acid]	207 to 209 °C
CC(=O)Nc1cccc(-c2ccc(OCC(=O)Nc3cscc3C(=O)O)cc2)c1 [Example 6, 4-[2-(3′-Acetylamino-biphenyl-4-yloxy)-acetylamino]-thiophene-3-carboxylic acid]	250 to 253 °C
COc1cccc(-c2ccc(OCC(=O)Nc3cscc3C(=O)O)cc2)c1 [Example 7, 4-[2-(3′-Methoxy-biphenyl-4-yloxy)-acetylamino]-thiophene-3-carboxylic acid]	187 to 189 °C
CC(=O)c1cccc(-c2ccc(OCC(=O)Nc3cscc3C(=O)O)cc2)c1 [Example 8, 4-[2-(3′-Acetyl-biphenyl-4-yloxy)-acetylamino]-thiophene-3-carboxylic acid]	212 to 214 °C
COc1ccccc1-c1ccc(OCC(=O)Nc2cscc2C(=O)O)nc1 [Example 10, 4-{2-[5-(2-Methoxy-phenyl)-pyridin-2-yloxy]-acetylamino}-thiophene-3-carboxylic acid]	194 to 197 °C
